Assay results from ChEMBL document CHEMBL5113482, “Discovery of fused benzimidazole-imidazole autophagic flux inhibitors for treatment of triple-negative breast cancer” (Eur J Med Chem, 2022).
Active and inactive are the calls of the source.

Assays:
MDA-MB-231 [1] = experiment: Induction of DNA damage in human MDA-MB-231 cells assessed as increase in gamma-H2AX accumulation measured after 48 hrs by immunofluorescence analysis; assay type: functional, cell-based
[2] = target: T1, Structural maintenance of chromosomes protein 1A (Homo sapiens) (UniProt Q14683); experiment: Activation of SMC1 phosphorylation in human MDA-MB-468 cells at 5 to 20 uM measured after 6 to 48 hrs by Western blot analysis; assay type: cell-based; conditions: filed as activator, dose 5-20 µM, time 6-48 hrs
T1 sequence (whole entry): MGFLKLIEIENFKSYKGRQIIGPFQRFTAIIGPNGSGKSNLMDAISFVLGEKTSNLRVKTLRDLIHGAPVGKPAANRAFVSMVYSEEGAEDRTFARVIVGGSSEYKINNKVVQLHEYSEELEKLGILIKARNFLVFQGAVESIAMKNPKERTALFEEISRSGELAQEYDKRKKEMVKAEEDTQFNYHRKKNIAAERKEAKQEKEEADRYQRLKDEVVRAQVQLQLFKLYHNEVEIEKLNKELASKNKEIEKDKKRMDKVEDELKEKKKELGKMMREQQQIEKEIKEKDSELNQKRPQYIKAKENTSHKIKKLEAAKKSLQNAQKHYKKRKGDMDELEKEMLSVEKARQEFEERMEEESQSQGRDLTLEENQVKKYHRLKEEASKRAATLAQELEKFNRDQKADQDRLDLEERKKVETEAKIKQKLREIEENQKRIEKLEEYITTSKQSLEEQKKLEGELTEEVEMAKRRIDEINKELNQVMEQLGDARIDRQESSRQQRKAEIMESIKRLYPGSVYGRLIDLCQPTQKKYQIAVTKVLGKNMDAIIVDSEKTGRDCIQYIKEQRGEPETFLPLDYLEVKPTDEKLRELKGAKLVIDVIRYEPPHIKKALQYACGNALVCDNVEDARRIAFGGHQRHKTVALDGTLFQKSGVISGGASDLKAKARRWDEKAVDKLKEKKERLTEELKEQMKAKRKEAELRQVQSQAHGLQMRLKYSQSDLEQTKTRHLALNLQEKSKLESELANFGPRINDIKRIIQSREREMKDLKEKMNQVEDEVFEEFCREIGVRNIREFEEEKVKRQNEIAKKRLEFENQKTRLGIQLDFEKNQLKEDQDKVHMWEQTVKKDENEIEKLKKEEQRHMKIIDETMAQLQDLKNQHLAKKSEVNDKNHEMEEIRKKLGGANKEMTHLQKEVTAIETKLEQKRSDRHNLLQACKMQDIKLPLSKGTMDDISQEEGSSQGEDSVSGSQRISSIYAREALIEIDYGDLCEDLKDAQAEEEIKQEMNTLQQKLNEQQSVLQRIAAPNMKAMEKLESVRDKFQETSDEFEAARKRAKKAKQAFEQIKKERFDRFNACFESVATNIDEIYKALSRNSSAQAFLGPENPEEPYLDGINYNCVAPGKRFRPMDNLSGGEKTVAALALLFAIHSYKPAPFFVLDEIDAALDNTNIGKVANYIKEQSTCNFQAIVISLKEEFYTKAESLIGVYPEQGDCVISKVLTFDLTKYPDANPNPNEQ

MDA-MB-231 [3] = experiment: Induction of DNA damage in human MDA-MB-231 cells assessed as reduction in RAD51 expression measured after 6 to 48 hrs by Western blot analysis; assay type: functional, cell-based; conditions: dose 5-20 µM, time 6-48 hrs, DDE = dose-dependent effect
MDA-MB-468 [4] = experiment: Cell cycle arrest in human MDA-MB-468 cells assessed as reduction in cyclin A expression measured after 48 hrs by Western blot analysis; assay type: functional, cell-based; conditions: dose 5-20 µM, DDE = dose-dependent effect
MDA-MB-468 [5] = experiment: Induction of apoptosis in human MDA-MB-468 cells assessed as increase in Bim expression measured after 48 hrs by Western blot analysis; assay type: functional, cell-based; conditions: dose 5-20 µM, DDE = dose-dependent effect
MDA-MB-468 [6] = experiment: Induction of apoptosis in human MDA-MB-468 cells assessed as increase in Bax expression measured after 48 hrs by Western blot analysis; assay type: functional, cell-based; conditions: dose 5-20 µM, DDE = dose-dependent effect

Measured: Activity

O=C(NC1CCCCC1)c1[nH]cnc1-c1nc2ccccc2[nH]1
active: MDA-MB-231 [1] | [2] | MDA-MB-231 [3] Dde | MDA-MB-468 [4] Dde | MDA-MB-468 [5] Dde | MDA-MB-468 [6] Dde
